According to patent publication US6830916B2, “Sphingosine kinase, cloning, expression and methods of use” (priority 2000, dated 2004):
One block for each molecule: values may come before it.

Assays:
hSPHK1 [1] = biological target: T1, hSPHK1 (Homo sapiens, UniProt Q9NYA1); experiment: SPHK-dependent phosphorylation of sphingosine analogs and other lipids (substrate specificity of hSPHK1); assay type: biochemical; details: lipid 50 μM, lysates of HEK293 cells transfected with hSPHK1 as enzyme source
T1 construct: to obtain the full-length cDNA of hSPHK1; expressed in transfected cells; host or cells: HEK293
Description: (§1) Cytosolic sphingosine kinase activity was determined with 50 μM sphingosine dissolved in Triton X-100 (final concentration 0.25%) and […] (10 μCi, 1 mM) containing MgCl2 (10 mM). In some studies, sphingosine was added as a complex with bovine serum albumin (BSA). Specific activity was expressed as pmol SPP formed per minute per mg protein.
(§2) HEK293 cells were transfected with hSPHK1 and SPHK-dependent phosphorylation of various sphingosine analogs or other lipids (50 μM) was measured using cell lysates as enzyme source. DAG, diacylglycerol; PI, phosphatidylinositol; C2-CER, N-acetyl—sphingosine. […] SPHK activity in HEK293 cell lysates 24 h after transfection with hSPHK1 was measured with 10 μM […] in the absence or presence of 20 μM and 40 μM DMS or DHS. Data are means±SD and are expressed as percent inhibition.

hSPHK1 [2] = biological target: T1, hSPHK1; experiment: Inhibition of SPHK activity in lysates of HEK293 cells transfected with hSPHK1; assay type: biochemical; details: for inhibition of hSPHK1: 20 μM and 40 μM inhibitor, 10 μM SPP (so in the source), HEK293 lysates 24 h after transfection
Description: as §1, §2

mouse melanoma B10 cells = details: low nanomolar concentrations of SPP; also SPP immobilized on glass beads; cited from earlier work
c-myc-SPHK = experiment: Cytosolic c-myc-SPHK activity in transfected NIH 3T3 fibroblasts; assay type: cell-based
Description: as §1

[3] = substrate: CCCCCCCCCCCCC/C=C/[C@@H](O)[C@@H](N)CO; experiment: SPHK-dependent phosphorylation of sphingosine analogs and other lipids (substrate specificity of hSPHK1); assay type: biochemical, human; details: other: D-erythro-sphingosine as substrate
Description: as §1, §2

Molecule: CCCCCCCCCCCCCCC[C@H](O)[C@@H](N)CO [DHS, D,L-threo-dihydrosphingosine]
- inhibition of hSPHK1 (hSPHK1 [2]): inhibited hSPHK1
- inhibition of hSPHK1 (hSPHK1 [2]; listed as D,L-threo-dihydro-sphingosine): inhibitors of hSPHK1
- relative inhibitory potency on hSPHK1 (hSPHK1 [2]; DHS compared with DMS): slightly more potent thank DMS
- substrate of hSPHK1 (SPHK-dependent phosphorylation) (hSPHK1 [1]): not substrates

Molecule: CCCCCCCCCCCCC/C=C/[C@@H](O)[C@@H](N)COP(=O)(O)O [SPP, Sphingosine-1-phosphate]
- effect on cell motility (mouse melanoma B10 cells): inhibited the motility

Molecule: N,N-dimethylsphingosine [DMS]
- inhibition of hSPHK1 (hSPHK1 [2]): inhibitors of hSPHK1
- inhibition of hSPHK1 (hSPHK1 [2]; listed as CMS): inhibited hSPHK1

Molecule: PDGF
- effect on cytosolic c-myc-SPHK activity (c-myc-SPHK): stimulated

Molecule: phosphatidylinositol
- substrate of hSPHK1 (SPHK-dependent phosphorylation) (hSPHK1 [1]): not substrates

B1: hSPHK1 (Homo sapiens) (protein)
chain: MDPAGGPRGVLPRPCRVLVLLNPRGGKGKALQLFRSHVQPLLAEAEISFTLMLTERRNHARELVRSEELGRWDALVVMSGDGLMHEVVNGLMERPDWETAIQKPLCSLPAGSGNALAASLNHYAGYEQVTNEDLLTNCTLLLCRRLLSPMNLLSLHTASGLRLFSVLSLAWGFIADVDLESEKYRRLGEMRFTLGTFLRLAALRTYRGRLAYLPVGRVGSKTPASPVVVQQGPVDAHLVPLEEPVPSHWTVVPDEDFVLVLALLHSHLGSEMFAAPMGRCAAGVMHLFYVRAGVSRAMLLRLFLAMEKGRHMEYECPYLVYVPVVAFRLEPKDGKGVFAVDGELMVSEAVQGQVHPNYFWMVSGCVEPPPSWKPQQMPPPEEPL
notes: to obtain the full-length cDNA of hSPHK1; expressed in transfected cells; host or cells: HEK293
- Km [3]: 5 µM

Second part, led by results:

- substrate of hSPHK1 (SPHK-dependent phosphorylation) (hSPHK1 [1]): not substrates
Molecule: CCCCCCCCCCCCC/C=C/[C@@H](O)[C@H](CO)NC(C)=O [C2-ceramide, N-acetyl—sphingosine]

- substrate of hSPHK1 (SPHK-dependent phosphorylation) (hSPHK1 [1]; listed as D-(+)-erythro-trans-isomer of sphingosine): best substrates
Molecule: CCCCCCCCCCCCC/C=C/[C@@H](O)[C@@H](N)CO [D-erythro-sphingosine]
- substrate of hSPHK1 (SPHK-dependent phosphorylation) (hSPHK1 [1]): more efficiently phosphorylated than sphingamine

- substrate of hSPHK1 (SPHK-dependent phosphorylation) (hSPHK1 [1]): best substrates
Molecule: CCCCCCCCCCCCCCC[C@H](O)[C@H](N)CO [erythrodihydrosphingosine]

- substrate of hSPHK1 (SPHK-dependent phosphorylation) (hSPHK1 [1]): not substrates
Molecule: diacylglycerol
